Laboratory results reported in ChEMBL document CHEMBL5316344, “Homologation of the Alkyl Side Chain of Antimitotic Phenyl 4-(2-Oxo-3-alkylimidazolidin-1-yl)benzenesulfonate Prodrugs Selectively Targeting CYP1A1-Expressing Breast Cancers Improves Their Stability in Rodent Liver Microsomes” (J Med Chem, 2023).

How the values were obtained:
[1] = test system: M21; assay: Antiproliferative activity against human M21 cells assessed as cell growth inhibition incubated for 48 hrs by sulforhodamine B assay; type: functional, cell-based; conditions: M21, 48 h
[2] = Selectivity ratio, ratio of IC50 for antiproliferative activity against human M21 cells to IC50 for antiproliferative activity against human MCF7 cells expressing CYP1A1; type: functional
[3] = test system: HT-29; assay: Antiproliferative activity against human HT-29 cells assessed as cell growth inhibition incubated for 48 hrs by sulforhodamine B assay; type: functional, cell-based; conditions: HT-29, 48 h
[4] = test system: MCF7; assay: Antiproliferative activity against human MCF7 cells expressing CYP1A1 assessed as cell growth inhibition incubated for 48 hrs by sulforhodamine B assay; type: functional, cell-based; conditions: MCF7, 48 h
[5] = Selectivity ratio, ratio of IC50 for antiproliferative activity against human HT-29 cells to IC50 for antiproliferative activity against human MCF7 cells expressing CYP1A1; type: functional
[6] = Stability in mouse liver microsomes assessed as intrinsic clearance incubated for 60 mins by HPLC analysis; type: ADME, Microsome; conditions: read-out: CLH
[7] = Stability in human liver microsomes assessed as half life incubated for 60 mins by HPLC analysis; type: ADME, Microsome
[8] = Stability in rat liver microsomes assessed as intrinsic clearance incubated for 60 mins by HPLC analysis; type: ADME, Microsome; conditions: read-out: CLH
[9] = Stability in mouse liver microsomes assessed as half life incubated for 60 mins by HPLC analysis; type: ADME, Microsome
[10] = Stability in rat liver microsomes assessed as half life incubated for 60 mins by HPLC analysis; type: ADME, Microsome
[11] = Stability in human liver microsomes assessed as intrinsic clearance incubated for 60 mins by HPLC analysis; type: ADME, Microsome; conditions: read-out: CLH
[12] = molecular target: T1, Cytochrome P450 1A1 (Homo sapiens, UniProt P04798); assay: Binding affinity to human CYP1A1 assessed as inhibition of conversion of 7-ethoicyresorufin into fluorescent resorufin by measuring inhibition constant preincubated for 5 mins followed by […] addition measured every minute for 15 mins by EROD assay; type: ADME
T1 sequence (P04798 whole entry): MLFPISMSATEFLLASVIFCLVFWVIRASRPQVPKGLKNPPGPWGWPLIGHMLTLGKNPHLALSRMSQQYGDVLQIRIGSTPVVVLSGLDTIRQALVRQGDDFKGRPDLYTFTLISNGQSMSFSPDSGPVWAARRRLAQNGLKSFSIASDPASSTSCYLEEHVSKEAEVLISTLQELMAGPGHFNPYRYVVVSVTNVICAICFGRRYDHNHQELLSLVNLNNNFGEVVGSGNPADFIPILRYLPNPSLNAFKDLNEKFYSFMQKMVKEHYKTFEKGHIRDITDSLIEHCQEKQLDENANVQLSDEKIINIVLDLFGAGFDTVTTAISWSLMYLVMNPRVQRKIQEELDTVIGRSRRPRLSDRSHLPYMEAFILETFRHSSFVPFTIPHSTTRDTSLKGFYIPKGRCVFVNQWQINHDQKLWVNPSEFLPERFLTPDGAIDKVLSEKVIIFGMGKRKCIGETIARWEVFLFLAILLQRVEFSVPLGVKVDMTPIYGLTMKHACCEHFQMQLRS

Structure (SMILES)	IC50 [3] [µM]	IC50 [4] [µM]	IC50 [1] [µM]	other results
CCCCCN1CCN(c2ccc(S(=O)(=O)Oc3ccc(OC)c(OC)c3)cc2)C1=O	> 12.5	0.7	0.5	Ratio IC50 [2]: >18; Ratio IC50 [5]: >18
CCCN1CCN(c2ccc(S(=O)(=O)Oc3cc(OC)c(OC)c(OO)c3)cc2)C1=O				microsomal CLint [6]: 174 µL/min/mg; half-life [7]: 109 min; microsomal CLint [8]: 19.5 µL/min/mg; half-life [9]: 8 min; half-life [10]: 71 min; microsomal CLint [11]: 13 µL/min/mg
CCCCCCN1CCN(c2ccc(S(=O)(=O)Oc3cc(F)cc(F)c3)cc2)C1=O	> 2.5	0.4	> 2.5	Ratio IC50 [2]: >6.3; Ratio IC50 [5]: >6.3
CCCCCN1CCN(c2ccc(S(=O)(=O)Oc3ccc(OC)cc3)cc2)C1=O	> 12.5	> 12.5	> 12.5	
CCCCCN1CCN(c2ccc(S(=O)(=O)Oc3cccc(Br)c3)cc2)C1=O	> 12.5	0.3	> 12.5	Ratio IC50 [2]: >42; Ratio IC50 [5]: >42
CCCCCCCCN1CCN(c2ccc(S(=O)(=O)Oc3cc(OC)cc(OC)c3)cc2)C1=O	> 2.5	> 2.5	> 2.5	
CCCCCCN1CCN(c2ccc(S(=O)(=O)Oc3ccc(F)c(F)c3)cc2)C1=O	> 2.5	> 2.5	> 2.5	
CCCCCN1CCN(c2ccc(S(=O)(=O)Oc3ccccc3)cc2)C1=O	> 25	> 25	> 25	
CCCCN1CCN(c2ccc(S(=O)(=O)Oc3cccc(I)c3)cc2)C1=O				microsomal CLint [6]: 109 µL/min/mg; half-life [7]: 100 min; microsomal CLint [8]: 109 µL/min/mg; half-life [9]: 12.3 min; half-life [10]: 12.7 min; microsomal CLint [11]: 14 µL/min/mg
O=c1cc(-c2ccccc2)oc2c1ccc1ccccc12 [ALPHA-NAPHTHOFLAVONE]				Ki [12]: 0.05 µM
CCCCCN1CCN(c2ccc(S(=O)(=O)Oc3cccc(OC)c3)cc2)C1=O	> 12.5	0.26	> 12.5	Ratio IC50 [2]: >48; Ratio IC50 [5]: >48
CCCCCCN1CCN(c2ccc(S(=O)(=O)Oc3ccccc3OC)cc2)C1=O	> 2.5	> 2.5	> 2.5	
CCCCCN1CCN(c2ccc(S(=O)(=O)Oc3cccc(F)c3)cc2)C1=O	> 12.5	1.2	> 12.5	Ratio IC50 [2]: >10; Ratio IC50 [5]: >10
CCCCN1CCN(c2ccc(S(=O)(=O)Oc3cccc(Cl)c3)cc2)C1=O				microsomal CLint [6]: 104 µL/min/mg; half-life [7]: 126 min; microsomal CLint [8]: 65 µL/min/mg; half-life [9]: 13.3 min; half-life [10]: 22 min; microsomal CLint [11]: 11 µL/min/mg
CCCCCCN1CCN(c2ccc(S(=O)(=O)Oc3cccc(F)c3)cc2)C1=O	> 2.5	> 2.5	> 2.5	
CCCCCCN1CCN(c2ccc(S(=O)(=O)Oc3cc(OC)c(OC)c(OC)c3)cc2)C1=O	> 2.5	0.14	> 2.5	Ratio IC50 [2]: >18; Ratio IC50 [5]: >18
CCCCN1CCN(c2ccc(S(=O)(=O)Oc3cc(Cl)cc(Cl)c3)cc2)C1=O				microsomal CLint [6]: 90 µL/min/mg; half-life [7]: 89 min; microsomal CLint [8]: 29 µL/min/mg; half-life [9]: 15.4 min; half-life [10]: 47 min; microsomal CLint [11]: 16 µL/min/mg
CCCCCCCCN1CCN(c2ccc(S(=O)(=O)Oc3cccc(OC)c3)cc2)C1=O	> 2.5	> 2.5	> 2.5	
CCCCCCN1CCN(c2ccc(S(=O)(=O)Oc3ccccc3)cc2)C1=O	> 2.5	> 2.5	> 2.5	
CCCCCN1CCN(c2ccc(S(=O)(=O)Oc3ccccc3OC)cc2)C1=O	> 12.5	> 12.5	> 12.5	
CCCCCCN1CCN(c2ccc(S(=O)(=O)Oc3cccc(Cl)c3)cc2)C1=O	> 2.5	1.8	> 2.5	Ratio IC50 [2]: >1.4; Ratio IC50 [5]: >1.4
CCCCCCN1CCN(c2ccc(S(=O)(=O)Oc3cc(OC)cc(OC)c3)cc2)C1=O	> 1.25	> 1.25	> 1.25	
CCCCCCCCN1CCN(c2ccc(S(=O)(=O)Oc3cccc(Cl)c3)cc2)C1=O	> 1.25	> 1.25	> 1.25	
CCCCCCCCN1CCN(c2ccc(S(=O)(=O)Oc3ccccc3OC)cc2)C1=O	> 2.5	> 2.5	> 2.5	
CCCCN1CCN(c2ccc(S(=O)(=O)Oc3cc(OC)cc(OC)c3)cc2)C1=O				microsomal CLint [6]: 133 µL/min/mg; half-life [7]: 67 min; microsomal CLint [8]: 15 µL/min/mg; half-life [9]: 10.5 min; half-life [10]: 93 min; microsomal CLint [11]: 20.7 µL/min/mg
CCCCCCN1CCN(c2ccc(S(=O)(=O)Oc3cccc(OC)c3)cc2)C1=O	> 2.5	> 2.5	> 2.5	
CCCCCN1CCN(c2ccc(S(=O)(=O)Oc3ccc(F)c(F)c3)cc2)C1=O	> 12.5	> 12.5	> 12.5	
CCCCCN1CCN(c2ccc(S(=O)(=O)Oc3cc(F)cc(F)c3)cc2)C1=O	> 12.5	1	> 12.5	Ratio IC50 [2]: >13; Ratio IC50 [5]: >13

The next lines start with results.

IC50 [3] [µM]	IC50 [4] [µM]	Structure (SMILES)	IC50 [1] [µM]	other results
> 1.25	> 1.25	CCCCCCN1CCN(c2ccc(S(=O)(=O)Oc3ccc(OC)cc3)cc2)C1=O	> 1.25	
> 1.25	1.1	CCCCCCN1CCN(c2ccc(S(=O)(=O)Oc3cccc(I)c3)cc2)C1=O	> 1.25	Ratio IC50 [2]: >1.1; Ratio IC50 [5]: >1.1
> 1.25	> 1.25	CCCCCCCCN1CCN(c2ccc(S(=O)(=O)Oc3cccc(I)c3)cc2)C1=O	> 1.25	
> 1.25	> 1.25	CCCCCCCCN1CCN(c2ccc(S(=O)(=O)Oc3cc(Cl)cc(Cl)c3)cc2)C1=O	> 1.25	
> 1.25	> 1.25	CCCCCCCCN1CCN(c2ccc(S(=O)(=O)Oc3ccc(F)c(F)c3)cc2)C1=O	> 1.25	
> 1.25	> 1.25	CCCCCCCCN1CCN(c2ccc(S(=O)(=O)Oc3cc(Br)cc(Br)c3)cc2)C1=O	> 1.25	
> 1.25	> 1.25	CCCCCCCCN1CCN(c2ccc(S(=O)(=O)Oc3ccc(OC)c(OC)c3)cc2)C1=O	> 1.25	
> 1.25	> 1.25	CCCCCCCCN1CCN(c2ccc(S(=O)(=O)Oc3cc(F)cc(F)c3)cc2)C1=O	> 1.25	
> 1.25	> 1.25	CCCCCCCCN1CCN(c2ccc(S(=O)(=O)Oc3ccc(OC)cc3)cc2)C1=O	> 1.25	
> 1.25	0.25	CCCCCCN1CCN(c2ccc(S(=O)(=O)Oc3cc(Cl)cc(Cl)c3)cc2)C1=O	> 1.25	Ratio IC50 [2]: >5; Ratio IC50 [5]: >5
> 1.25	> 1.25	CCCCCCN1CCN(c2ccc(S(=O)(=O)Oc3cccc(Br)c3)cc2)C1=O	> 1.25	
> 1.25	0.12	CCCCCCN1CCN(c2ccc(S(=O)(=O)Oc3cc(Br)cc(Br)c3)cc2)C1=O	0.73	Ratio IC50 [2]: 6.1; Ratio IC50 [5]: >10
> 1.25	> 1.25	CCCCCCCCN1CCN(c2ccc(S(=O)(=O)Oc3cccc(Br)c3)cc2)C1=O	> 1.25	
> 1.25	> 1.25	CCCCCCCCN1CCN(c2ccc(S(=O)(=O)Oc3cc(OC)c(OC)c(OC)c3)cc2)C1=O	> 1.25	
> 1.25	> 1.25	CCCCCCCCN1CCN(c2ccc(S(=O)(=O)Oc3ccccc3)cc2)C1=O	> 1.25	
> 1.25	> 1.25	CCCCCCN1CCN(c2ccc(S(=O)(=O)Oc3ccc(OC)c(OC)c3)cc2)C1=O	> 1.25	
> 1.25	> 1.25	CCCCCCCCN1CCN(c2ccc(S(=O)(=O)Oc3cccc(F)c3)cc2)C1=O	> 1.25	
> 0.5	> 0.5	CCCCCN1CCN(c2ccc(S(=O)(=O)Oc3cc(Br)cc(Br)c3)cc2)C1=O	> 0.5	
